Structures are written as SMILES. pEC50, pIC50: −log10 of the molar value.

One experiment concerns the target T1, recombinant human PDE4.
T1 construct: PDE4 IC50; other: human recombinant PDE4
As to the kind of experiment: PDE4 inhibition, charcoal separation [32P]cAMP phosphodiesterase assay. Format: biochemical. On the procedure: The compounds of structural formula (II) were tested for an ability to inhibit PDE4. The ability of a compound to inhibit PDE4 activity is related to the IC50 value for the compound, i.e., the concentration of inhibitor required for 50% inhibition of enzyme activity. The IC50 value for compounds of structural formula (II) were determined using recombinant human PDE4.
Recombinant production of human PDE1B, PDE2, PDE4A, PDE4B, PDE4C, PDE4D, PDE5, and PDE7 was carried out similarly to that described in Example 7 of U.S. Pat. No. 5,702,936, incorporated herein by reference, except that the yeast transformation vector employed, which is derived from the basic ADH2 plasmid described in Price et al., Methods in Enzymology, 185, pp. 308-318 (1990), incorporated yeast ADH2 promoter and terminator sequences and the Saccharomyces cerevisiae host was the protease-deficient strain BJ2-54 deposited on Aug. 31, 1998 with the American Type Culture Collection, Manassas, Va., under accession number ATCC 74465. Transformed host cells were grown in 2×SC-leu medium, pH 6.2, with trace metals, and vitamins. After 24 hours, YEP medium-containing glycerol was added to a final concentration of 2×YET/3% glycerol. Approximately 24 hr later, cells were harvested, washed, and stored at −70° C.
Phosphodiesterase activity of the preparations was determined as follows. PDE assays utilizing a charcoal separation technique were performed essentially as described in Loughney et al. (1996). In this assay, PDE activity converts [32P]cAMP or [32P]cGMP to the corresponding [32P]5′-AMP or [32P]5′-GMP in proportion to the amount of PDE activity present. The [32P]5′-AMP or [32P]5′-GMP then was quantitatively converted to free [32P]phosphate and unlabeled adenosine or guanosine by the action of snake venom 5′-nucleotidase. […] The assay was performed at 30° C. in a 100 μL reaction mixture containing (final concentrations) 40 mM Tris HCl (pH 8.0), 1 μM ZnSO4, 5 mM MgCl2, and 0.1 mg/mL bovine serum albumin (BSA). Alternatively, in assays assessing PDE1-specific activity, incubation mixtures further incorporated the use of 0.1 mM CaCl2 and 10 μg/mL calmodulin. PDE enzyme was present in quantities that yield <30% total hydrolysis of substrate (linear assay conditions). The assay was initiated by addition of substrate (1 mM [32P]cAMP or cGMP), and the mixture was incubated for 12 minutes. Seventy-five (75) μg of Crotalus atrox venom then was added, and the incubation was continued for 3 minutes (15 minutes total). The reaction was stopped by addition of 200 μL of activated charcoal (25 mg/mL suspension in 0.1 M […], pH 4). After centrifugation (750×g for 3 minutes) to sediment the charcoal, a sample of the supernatant was taken for radioactivity determination in a scintillation counter and the PDE activity was calculated.
Inhibitor analyses were performed similarly to the method described in Loughney et al., J. Biol. Chem., 271, pp. 796-806 (1996), except both cGMP and cAMP were used, and substrate concentrations were kept below 32 nM, which is far below the Km of the tested PDEs.

The subject of experiment [1] is TNFα secretion in human peripheral blood lymphocytes. As to the kind of experiment: Lipopolysaccharide-stimulated TNFα release from human peripheral blood lymphocytes. Format: cell-based. The following applies: Lymphocyte; LPS-stimulated TNFα release from human PBL. How it is done:
The compounds of structural formula (II) also were tested for an ability to reduce TNFα secretion in human peripheral blood lymphocytes. The ability to reduce TNFα secretion is related to the EC50 values i.e., the effective concentration pf the compound capable of inhibiting 50% of the total TNFα).
To assess the ability of a compound to reduce TNFα secretion in human peripheral blood lymphocytes (PBL), the following tests were performed.
Heparinized blood (approximately 30 mL) drawn from human volunteers was mixed 1:1 with Dulbecco's modified phosphate-buffered saline. This mixture was mixed 1:1 with HISTOPAQUE® and centrifuged at 1,500 rpm at room temperature without braking in the swinging bucket of a Beckman model TJ6 centrifuge. Erythrocytes were centrifuged to the bottom of the tubes, and serum remained at the surface of the tubes. A layer containing lymphocytes sedimented between the serum and HISTOPAQUE® layers, and was removed by aspiration to a fresh tube. The cells were quantified and adjusted to […] and a 100 μL aliquot is placed into the wells of a 96 well plate. Test compounds and RPMI media (Gibco/BRL Life Sciences) are added to each of the wells 15 minutes prior to addition of bacterial LPS ([…]). The mixture was allowed to incubate for 20 hours at 37° C. in a humidified chamber. The cells then were separated by centrifuging at 800 rpm for 5 minutes at room temperature. An aliquot of 180 μL of supernatant was transferred to a new plate for determination of TNFα concentration. TNFα protein in the cell supernatant fluids was measured using a commercially available enzyme-linked immunosorbent assay (ELISA) (CYTOSCREEN® Immunoassay Kit from Biosource International).
The cell-based assay provided the following results for various pyrrolidine compounds of the present invention. The EC50 values (i.e., effective concentration of the compound capable of inhibiting 50% of the total TNFα) illustrate the ability of the present compounds to inhibit LPS-stimulated TNFα release from human PBL.

As for `COC(=O)N1C[C@@H](c2ccc(OC)c(OC3CCCC3)c2)[C@](C)(CNCc2ccccc2)C1` [Example 1, Methyl (4S,3R)-4-(3-cyclopentyloxy-4-methoxyphenyl)-3-methyl-3-{[benzylamino]methyl]}pyrrolidine carboxylate], the pIC50 at recombinant human PDE4 is 5.85. The compound also had a pEC50 in experiment [1] of 6.11.

For the compound `COC(=O)N1C[C@@H](c2ccc(OC)c(OC3CCCC3)c2)[C@](C)(CN)C1` [Example 2, Methyl (4S,3R)-3-(aminomethyl)-4-(3-cyclopentyloxy-4-methoxyphenyl)-3-methylpyrrolidinecarboxylate], the pIC50 on recombinant human PDE4 is 7.55. This compound gave a pEC50 in experiment [1] of 6.85. Regarding `COC(=O)N1CC(c2ccc(OC)c(OC3CCCC3)c2)[C@](C)(CNS(C)(=O)=O)C1` (stereo partly drawn) [Example 3], the pIC50 at recombinant human PDE4 is 5.50. Turning to `COC(=O)N1C[C@@H](c2ccc(OC)c(OC3CCCC3)c2)[C@](C)(CNC(C)=O)C1` [Example 4, Methyl (4S,3R)-3-[(acetylamino)methyl]-4-(3-cyclopentyloxy-4-methoxyphenyl)-3-methylpyrrolidine-carboxylate], the pIC50 on recombinant human PDE4 is 5.51. With `COC(=O)N1C[C@@H](c2ccc(OC)c(OC3CCCC3)c2)[C@](C)(CNC(=O)c2ccccc2)C1` [Example 5, Methyl (4S,3R)-4-(3-cyclopentyloxy-4-methoxyphenyl)-3-methyl-3-[(phenylcarbonylamino)methyl]pyrrolidinecarboxylate], the pIC50 at recombinant human PDE4 is 5.60. `COC(=O)N1CC(c2ccc(OC)c(OC3CCCC3)c2)[C@](C)(CNS(=O)(=O)c2ccccc2)C1` (stereo partly drawn) [Example 6]: the pIC50 on recombinant human PDE4 was 6.30. The same compound showed a pEC50 in experiment [1] of 6.14. `COc1ccc([C@@H]2CN(Cc3ccccc3)C[C@@]2(C)C(C)N)cc1OC1CCCC1` (stereo partly drawn) [Example 8, 1-[(3S,4S)-4-(3-Cyclopentyloxy-4-methoxyphenyl)-3-methyl-1-benzylpyrrolidin-3-yl]ethylamine]: the pIC50 on recombinant human PDE4 was 6.17. The pEC50 in experiment [1] was 5.81. `COc1ccc([C@@H]2CN(Cc3ccccc3)C[C@@]2(C)C(C)NC(=O)c2ccccc2)cc1OC1CCCC1` (stereo partly drawn) [Example 10, N-{1-[(3S,4S)-4-(3-Cyclopentyloxy-4-methoxyphenyl)-3-methyl-1-benzylpyrrolidin-3-yl]ethyl}benzamide]: on recombinant human PDE4, the pIC50 was 5.53. As for `COc1ccc([C@@H]2CN(Cc3ccccc3)C[C@@]2(C)C(C)NC(=O)c2ccccc2)cc1OC1CCCC1` (stereo partly drawn) [Example 11, N-{1-[(3S,4S)-4-(3-Cyclopentyloxy-4-methoxyphenyl)-3-methyl-1-benzylpyrrolidin-3-yl]ethyl}benzamide], on recombinant human PDE4, the pIC50 was 4.57. For `COc1ccc([C@@H]2CN(Cc3ccccc3)C[C@@]2(C)C(C)NC(C)=O)cc1OC1CCCC1` (stereo partly drawn) [Example 12, N-{1-[(3S,4S)-4-(3-Cyclopentyloxy-4-methoxyphenyl)-3-methyl-1-benzylpyrrolidin-3-yl]ethyl}acetamide], on recombinant human PDE4, the pIC50 is 4.83. `COc1ccc([C@@H]2CN(Cc3ccccc3)C[C@@]2(C)C(C)NC(C)=O)cc1OC1CCCC1` (stereo partly drawn) [Example 13, N-{1-[(3S,4S)-4-(3-Cyclopentyloxy-4-methoxyphenyl)-3-methyl-1-benzylpyrrolidin-3-yl]ethyl}acetamide]: the negative-log IC50 (pIC50) at recombinant human PDE4 was 5.61. Regarding `COC(=O)N1C[C@@H](c2ccc(OC)c(OC3CCCC3)c2)[C@](C)(C(C)NC(C)=O)C1` (stereo partly drawn) [Example 14, 3-(S)-(1-Acetylaminoethyl)-4-(S)-(3-cyclopentyloxy-4-methoxyphenyl)-3-methylpyrrolidine-1-carboxic Acid Methyl Ester], in experiment [1], the pEC50 is 6.22. As to `COc1ccc([C@@H]2CN(Cc3ccccc3)C[C@@]2(C)C(C)NS(=O)(=O)c2ccccc2)cc1OC1CCCC1` (stereo partly drawn) [Example 15, {1-[(3S,4S)-4-(3-Cyclopentyloxy-4-methoxyphenyl)-3-methyl-1-benzylpyrrolidin-3-yl]ethyl}-(phenylsulfonyl)amine], the pIC50 on recombinant human PDE4 was 5.05. As for `COc1ccc(C2CN(Cc3ccccc3)C[C@@]2(C)C(C)NS(=O)(=O)c2ccccc2)cc1OC1CCCC1` (stereo partly drawn) [Example 16, {1-[(3S,4S)-4-(3-cyclopentyloxy-4-methoxyphenyl)-3-methyl-1-benzylpyrrolidin-3-yl]ethyl}-(phenylsufonyl)amine], on recombinant human PDE4, the pIC50 was 5.04. For `COc1ccc([C@@H]2CN(Cc3ccccc3)C[C@@]2(C)C(C)NS(C)(=O)=O)cc1OC1CCCC1` (stereo partly drawn) [Example 17, {1-[(3S,4S)-4-(3-Cyclopentyloxy-4-methoxyphenyl)-3-methyl-1-benzylpyrrolidin-3-yl]ethyl}-(methylsulfonyl)amine], the pIC50 on recombinant human PDE4 is 5.06. Take `COc1ccc([C@@H]2CN(Cc3ccccc3)C[C@@]2(C)C(C)NS(C)(=O)=O)cc1OC1CCCC1` (stereo partly drawn) [Example 18, {1-[(3S,4S)-4-(3-Cyclopentyloxy-4-methoxyphenyl)-3-methyl-1-benzylpyrrolidin-3-yl]ethyl}-(methylsulfonyl)amine]: the pIC50 at recombinant human PDE4 was 5.13. As for `COC(=O)N1C[C@@H](c2ccc(OC)c(OC3CCCC3)c2)[C@](C)(CNC(=O)OC(C)(C)C)C1` [Example 21], the pIC50 at recombinant human PDE4 is 5.66.

Take `COc1ccc(C2CN(Cc3ccccc3)C[C@]2(C)CN(C)C)cc1OC1CCCC1` (stereo partly drawn) [Example 22]: the pIC50 on recombinant human PDE4 was 5.23. Regarding `CNC[C@]1(C)CN(Cc2ccccc2)CC1c1ccc(OC)c(OC2CCCC2)c1` (stereo partly drawn) [Example 23], the pIC50 on recombinant human PDE4 was 5.12. Take `COC(=O)N1C[C@@H](c2ccc(OC)c(OC3Cc4ccccc4C3)c2)[C@](C)(CN)C1` [Example 24]: at recombinant human PDE4, the negative logarithm of the IC50 (pIC50) was 7.64. In experiment [1], this compound gave a pEC50 of 7.12. For the compound `COC(=O)N1C[C@@H](c2ccc(OC)c(OCC3CC3)c2)[C@](C)(CN)C1` [Example 25], the pIC50 at recombinant human PDE4 was 7.28. The pEC50 in experiment [1] was 7.07. For `COc1ccc([C@@H]2CN(C(=O)C(C)(C)O)C[C@@]2(C)CN)cc1OCC1CC1` [Example 26], the pIC50 on recombinant human PDE4 was 6.63. This compound also gave a pEC50 in experiment [1] of 6.35. Taken in the same sequence, the figures for `COc1ccc([C@@H]2CN(C(=O)CO)C[C@@]2(C)CN)cc1OCC1CC1` [Example 27] were 6.32 and 6.09. On to `CCNC[C@]1(C)CN(C(=O)OC)C[C@H]1c1ccc(OC)c(OC2Cc3ccccc3C2)c1` [Example 28], for which the pIC50 on recombinant human PDE4 is 6.23. The pEC50 in experiment [1] is 5.86.

A word on the pIC50: it is the negative decadic logarithm of the IC50, by convention in mol/L. The term pEC50 denotes the EC50 on a negative log10 scale, so that one unit is a factor of ten. High values mean a small EC50, low ones a large EC50.

These data come from patent publication US6680336B2, “Cyclic AMP-specific phosphodiesterase inhibitors” (ICOS Corporation, priority 1999, dated 2004).
